In brackets after ≈: the same amount, converted by molar mass. Read-outs that look alike come from different tables or passages of the source.

Assay type in all cases: cell-based
In experiment [1] the test system is Enterococcus faecalis 101 (ATCC 29212). In words: MIC, broth microdilution, EFc 101. The following applies: Enterococcus faecalis, ATCC29212, class symbols, read-out: MIC E FC 101. The method, then: (§1) Antibacterial activity in vitro is investigated by broth microdilution method in Meuller-Hinton broth as recommended by NCCLS. All strains tested are clinical isolates either sensitive or resistant to natural glycopeptides. MIC values were determined using the CLSI-recommended broth microdilution procedure (Clinical and Laboratory Standards Institute, Methods for Dilution Antimicrobial Susceptibility Tests for Bacteria That Grow Aerobically; Approved Standard-Seventh Edition.). Automated liquid handlers (Multidrop 384, Labsystems, Helsinki, Finland; Biomek 2000 and Multimek 96, Beckman Coulter, Fullerton Calif.) were used to conduct serial dilutions and liquid transfers. The MIC value for vancomycin is given for comparison. The abbreviations for organisms tested are as follow: SA 100—Staphylococcus aureus 100 (ATCC 29213); SA 757—Staphylococcus aureus 757 (MRSA); SA 2012—Staphylococcus aureus 2012 (VISA); SE 835—Staphylococcus epidermidis 835; SE 831—Staphylococcus epidermidis 831 (MRSE); EFc 101—Enterococcus faecalis 101 (ATCC 29212); EFc 848—Enterococcus faecalis 848 (VRE, Van A); EFcm 800—Enterococcus faecium 800; EFcm 752—Enterococcus faecium 752 (VRE, Van A); SPNE 1195—Streptococcus pneumoniae 1195 (ATCC 49619); SPY 712—Streptococcus pyogenes 712.
In general terms: Broth dilution looks for growth in wells or tubes with falling amounts of substance.

In experiment [2] the test system is Enterococcus faecium 800. In words: MIC, broth microdilution, EFcm 800. The following applies: Enterococcus faecium, 800, class symbols, read-out: MIC E FCM 800. The method, then:
as §1

For experiment [3], the system named is Streptococcus pyogenes 712. In words: MIC, broth microdilution, SPY 712. Particulars: Streptococcus pyogenes, 712, class symbols, read-out: MIC S PYO 712. On the procedure: as §1
In experiment [4] the test system is Enterococcus faecium 752 (VRE, Van A). In words: MIC, broth microdilution, EFcm 752. Particulars: VRE, Van A, class symbols, read-out: MIC E FCM 752. On the procedure: as §1
The test system of experiment [5] is Enterococcus faecalis 848 (VRE, Van A). In words: MIC, broth microdilution, EFc 848. Particulars: VRE, Van A, class symbols, read-out: MIC E FC 848. On the procedure:
as §1

The test system of experiment [6] is Staphylococcus epidermidis 835. The experiment can be described thus: MIC, broth microdilution, SE 835. The following applies: Staphylococcus epidermidis, 835, class symbols, read-out: MIC SE 835. On the procedure:
as §1

In experiment [7] the test system is Staphylococcus aureus 100 (ATCC 29213). In words: MIC, broth microdilution, SA 100. Particulars: Staphylococcus aureus, ATCC29213, class symbols, read-out: MIC SA 100. On the procedure:
as §1

In experiment [8] the test system is Staphylococcus aureus 2012 (VISA). The experiment can be described thus: MIC, broth microdilution, SA 2012. Particulars: read-out: MIC SA 2012. On the procedure:
as §1

Experiment [9] deals with Staphylococcus epidermidis 831 (MRSE). The experiment can be described thus: MIC, broth microdilution, SE 831. The following applies: Staphylococcus epidermidis, read-out: MIC SE 831. On the procedure:
as §1

Experiment [10] has as its system Streptococcus pneumoniae 1195 (ATCC 49619). In words: MIC, broth microdilution, SPNE 1195. Particulars: Streptococcus pneumoniae, ATCC49619, class symbols, read-out: MIC S PNE 1195. The method, then: as §1
Experiment [11] deals with Staphylococcus aureus 757 (MRSA). In words: MIC, broth microdilution, SA 757. Particulars: read-out: MIC SA 757. On the procedure:
as §1

Setting [12] is: Table 2, in the presence of 0.002% Polysorbate 80.
The mark [13] stands for this setting: Table 2, in the presence of 0.002% Polysorbate 80, class symbols.

Turning to `CN[C@H](CC(C)C)C(=O)N[C@H]1C(=O)N[C@@H](CC(=O)NC(=O)c2ccc(OCCOC)cc2)C(=O)N[C@H]2C(=O)N[C@H]3C(=O)N[C@H](C(=O)N[C@H](C(=O)NC4C5CC6CC(C5)CC4C6)c4cc(O)cc(O)c4-c4cc3ccc4O)[C@H](O)c3ccc(c(Cl)c3)Oc3cc2cc(c3O[C@@H]2O[C@H](CO)[C@@H](O)[C@H](O)[C@H]2O[C@H]2C[C@](C)(N)[C@H](O)[C@H](C)O2)Oc2ccc(cc2Cl)[C@H]1O` (some centres unmarked) [Compound 65], the MIC in experiment [1] (setting [12]) lay within 0.01 to 0.5 µg/mL; in [2] (setting [12]), 0.01 to 0.5 µg/mL; in experiment [3] (setting [12]), 0.01 to 0.5 µg/mL; in experiment [4] (setting [12]), 1 to 2 µg/mL; in experiment [5] (setting [12]) it was 4 to 8 µg/mL; in experiment [6] (setting [12]), 0.5 to 1 µg/mL. Also, the MIC in [7] (setting [12]) was 0.5 to 1 µg/mL; in [8] (setting [13]), 2 to 4 µg/mL; in [9] (setting [13]), 0.01 to 0.5 µg/mL; in experiment [10] (setting [12]) it was 0.01 to 0.5 µg/mL; in experiment [11] (setting [13]), 0.01 to 0.5 µg/mL.
With `CCCCOc1ccc(S(=O)(=O)NC(=O)C[C@@H]2NC(=O)[C@H](NC(=O)[C@@H](CC(C)C)NC)[C@H](O)c3ccc(c(Cl)c3)Oc3cc4cc(c3O[C@@H]3O[C@H](CN)[C@@H](O)[C@H](O)[C@H]3O)Oc3ccc(cc3Cl)[C@@H](O)[C@@H]3NC(=O)[C@H](NC(=O)[C@@H]4NC2=O)c2ccc(O)c(c2)-c2c(O)cc(O)cc2[C@@H](C(=O)NC2C4CC5CC(C4)CC2C5)NC3=O)cc1` (some centres unmarked) [Compound 99], the MIC lay within 0.01 to 0.5 µg/mL (≈ 0.00606 to 0.303 µM) in experiment [1] (Table 1); 0.01 to 0.5 µg/mL (≈ 0.00606 to 0.303 µM) in experiment [2] (Table 1); 0.01 to 0.5 µg/mL (≈ 0.00606 to 0.303 µM) in [3] (Table 1); 0.01 to 0.5 µg/mL (≈ 0.00606 to 0.303 µM) in [4] (Table 1); 0.5 to 1 µg/mL (≈ 0.303 to 0.606 µM) in [5] (Table 1); 0.01 to 0.5 µg/mL (≈ 0.00606 to 0.303 µM) in experiment [6] (Table 1). In addition, the MIC fell in the range of 0.01 to 0.5 µg/mL (≈ 0.00606 to 0.303 µM) in experiment [7] (Table 1); 0.5 to 1 µg/mL (≈ 0.303 to 0.606 µM) in experiment [8] (Table 1, class symbols); 0.01 to 0.5 µg/mL (≈ 0.00606 to 0.303 µM) in [9] (Table 1, class symbols); 0.5 to 1 µg/mL (≈ 0.303 to 0.606 µM) in experiment [10] (Table 1); 0.01 to 0.5 µg/mL (≈ 0.00606 to 0.303 µM) in experiment [11] (Table 1, class symbols).
`CN[C@H](CC(C)C)C(=O)N[C@H]1C(=O)N[C@@H](CC(=O)NS(=O)(=O)c2ccc(OCCOC)cc2)C(=O)N[C@H]2C(=O)N[C@H]3C(=O)N[C@H](C(=O)N[C@H](C(=O)NC4C5CC6CC(C5)CC4C6)c4cc(O)cc(O)c4-c4cc3ccc4O)[C@H](O)c3ccc(c(Cl)c3)Oc3cc2cc(c3O[C@@H]2O[C@H](CN)[C@@H](O)[C@H](O)[C@H]2O)Oc2ccc(cc2Cl)[C@H]1O` (some centres unmarked) [Compound 101]: the MIC in [1] (Table 1) was 0.01 to 0.5 µg/mL (≈ 0.00605 to 0.303 µM); in experiment [2] (Table 1) it was 0.01 to 0.5 µg/mL (≈ 0.00605 to 0.303 µM); in experiment [3] (Table 1) it was 0.01 to 0.5 µg/mL (≈ 0.00605 to 0.303 µM); in experiment [4] (Table 1), 0.01 to 0.5 µg/mL (≈ 0.00605 to 0.303 µM); in experiment [5] (Table 1), 1 to 2 µg/mL (≈ 0.605 to 1.21 µM); in [6] (Table 1), 0.01 to 0.5 µg/mL (≈ 0.00605 to 0.303 µM). Moreover, the MIC was in the range of 0.01 to 0.5 µg/mL (≈ 0.00605 to 0.303 µM) in experiment [7] (Table 1); 0.01 to 0.5 µg/mL (≈ 0.00605 to 0.303 µM) in [8] (Table 1, class symbols); 0.01 to 0.5 µg/mL (≈ 0.00605 to 0.303 µM) in experiment [9] (Table 1, class symbols); 0.01 to 0.5 µg/mL (≈ 0.00605 to 0.303 µM) in experiment [10] (Table 1); 0.01 to 0.5 µg/mL (≈ 0.00605 to 0.303 µM) in [11] (Table 1, class symbols).
Regarding `CN[C@H](CC(C)C)C(=O)N[C@H]1C(=O)N[C@@H](CC(=O)NS(=O)(=O)c2ccc(OCCOCCOC)cc2)C(=O)N[C@H]2C(=O)N[C@H]3C(=O)N[C@H](C(=O)N[C@H](C(=O)NC4C5CC6CC(C5)CC4C6)c4cc(O)cc(O)c4-c4cc3ccc4O)[C@H](O)c3ccc(c(Cl)c3)Oc3cc2cc(c3O[C@@H]2O[C@H](CN)[C@@H](O)[C@H](O)[C@H]2O)Oc2ccc(cc2Cl)[C@H]1O` (some centres unmarked) [Compound 102], the MIC was 0.01 to 0.5 µg/mL (≈ 0.00589 to 0.295 µM) in experiment [1] (Table 1); 0.01 to 0.5 µg/mL (≈ 0.00589 to 0.295 µM) in experiment [2] (Table 1); 0.01 to 0.5 µg/mL (≈ 0.00589 to 0.295 µM) in [3] (Table 1); 0.5 to 1 µg/mL (≈ 0.295 to 0.589 µM) in [4] (Table 1); 2 to 4 µg/mL (≈ 1.18 to 2.36 µM) in [5] (Table 1); 0.01 to 0.5 µg/mL (≈ 0.00589 to 0.295 µM) in experiment [6] (Table 1). Also, the minimum inhibitory concentration (MIC) in [7] (Table 1) was 0.01 to 0.5 µg/mL (≈ 0.00589 to 0.295 µM); in experiment [8] (Table 1, class symbols) it was 0.5 to 1 µg/mL (≈ 0.295 to 0.589 µM); in [9] (Table 1, class symbols), 0.01 to 0.5 µg/mL (≈ 0.00589 to 0.295 µM); in [10] (Table 1), 0.01 to 0.5 µg/mL (≈ 0.00589 to 0.295 µM); in experiment [11] (Table 1, class symbols), 0.01 to 0.5 µg/mL (≈ 0.00589 to 0.295 µM).

In general, MIC refers to the least concentration at which growth counts as inhibited.

These data come from US20120252741A1, “NOVEL SEMI-SYNTHETIC GLYCOPEPTIDES AS ANTIBACTERIAL AGENTS” (priority 2008, published 2012).
